The results in this text go back to US9725449B2, “Tricyclic compounds as anticancer agents” (BRISTOL-MYERS SQUIBB COMPANY, priority 2015, dated 2017).

In the test the target is BRD4 (Homo sapiens, UniProt O60885). Kind of test: Time resolved fluorescence resonance energy transfer (TR-FRET) binding assay, bromodomain BRD4. To be noted: one of the FRET assays described; read-out: FRET BRD4 IC50.
For `[2H]C([2H])([2H])c1nnn(C)c1-c1cnc2c3c(OC)nc(N(C)CCNC)cc3n([C@H](c3ncccc3F)C3CCOCC3)c2c1` [Example 313, 8-[(S)-(3-Fluoropyridin-2-yl)(oxan-4-yl)methyl]-13-methoxy-N-methyl-5-[4-(^2H3)methyl-1-methyl-1H-1,2,3-triazol-5-yl]-N-[2-(methylamino)ethyl]-3,8,12-triazatricyclo[7.4.0.0^2,^7]trideca-1(9),2(7),3,5,10,12-hexaen-11-amine], the IC50 was less than 1500 nM.

As for `Cc1nnn(C)c1-c1cnc2c3ccnc(Cl)c3n([C@H](c3ccccc3)C3CCOCC3)c2c1` [Example 6, 10-Chloro-5-(dimethyl-1H-1,2,3-triazol-5-yl)-8-[(S)-oxan-4-yl(phenyl)methyl]-3,8,11-triazatricyclo[7.4.0.0^2,^7]trideca-1(13),2(7),3,5,9,11-hexaene], the half-inhibitory concentration (IC50) was less than 1 nM.

In the case of `Cc1nnn(C)c1-c1cnc2c3c(NS(=O)(=O)CC4CC4)ncc(S(C)(=O)=O)c3n([C@H](c3ccccc3)C3CCOCC3)c2c1` [Example 104, 1-Cyclopropyl-N-[5-(dimethyl-1H-1,2,3-triazol-5-yl)-10-methanesulfonyl-8-[(S)-oxan-4-yl(phenyl)methyl]-3,8,12-triazatricyclo[7.4.0.0^2,^7]trideca-1(13),2(7),3,5,9,11-hexaen-13-yl]methanesulfonamide], the IC50 is less than 10 nM.

As to `[2H]C([2H])([2H])c1nnn(C)c1-c1cnc2c3c(OCC)ncc(S(C)(=O)=O)c3n(C(c3ncccc3F)C3CCOCC3)c2c1` (stereo not shown) [Example 68, 13-Ethoxy-8-[(3-fluoropyridin-2-yl)(oxan-4-yl)methyl]-10-methanesulfonyl-5-[4-(^2H3)methyl-1-methyl-1H-1,2,3-triazol-5-yl]-3,8,12-triazatricyclo[7.4.0.0^2,^7]trideca-1(13),2(7),3,5,9,11-hexaene], the half-inhibitory concentration (IC50) is less than 1 nM.

Take `Cc1noc(C)c1-c1cnc2c3c(OCC4CC4)ncc(S(C)(=O)=O)c3n([C@H](c3ccccc3)C3CCOCC3)c2c1` [Example 103, 13-(Cyclopropylmethoxy)-5-(dimethyl-1,2-oxazol-4-yl)-10-methanesulfonyl-8-[(S)-oxan-4-yl(phenyl)methyl]-3,8,12-triazatricyclo[7.4.0.0^2,^7]trideca-1(13),2(7),3,5,9,11-hexaene]: the half-maximal inhibitory concentration (IC50) was less than 10 nM.

`[2H]C([2H])([2H])c1nnn(C)c1-c1cnc2c3cnc(C(C)(C)O)cc3n([C@H](c3ccc(F)cc3)C3CCOCC3)c2c1` [Example 159, 2-{8-[(S)-(4-Fluorophenyl)(oxan-4-yl)methyl]-5-[4-(^2H3)methyl-1-methyl-1H-1,2,3-triazol-5-yl]-3,8,12-triazatricyclo[7.4.0.0^2,^7]trideca-1(13),2(7),3,5,9,11-hexaen-11-yl}propan-2-ol]: the half-inhibitory concentration (IC50) is less than 1500 nM.

Turning to `Cc1noc(C)c1-c1cnc2c3ccc(S(C)(=O)=O)nc3n([C@H](c3ccccc3)C3CCOCC3)c2c1` [Example 144, 5-(Dimethyl-1,2-oxazol-4-yl)-11-methanesulfonyl-8-[(S)-oxan-4-yl(phenyl)methyl]-3,8,10-triazatricyclo[7.4.0.0^2,^7]trideca-1(13),2(7),3,5,9,11-hexaene], the half-inhibitory concentration (IC50) was less than 10 nM.

Turning to `COc1ncc(S(C)(=O)=O)c2c1c1ncc(-c3c(C)noc3C)cc1n2[C@H](c1ccccc1F)C1CCOCC1` [Example 48, 5-(Dimethyl-1,2-oxazol-4-yl)-8-[(S)-(2-fluorophenyl)(oxan-4-yl)methyl]-10-methanesulfonyl-13-methoxy-3,8,12-triazatricyclo[7.4.0.0^2,^7]trideca-1(13),2(7),3,5,9,11-hexaene], the IC50 is less than 1 nM.

`Cc1noc(C)c1-c1cnc2c3cnc(Cl)cc3n(C(c3ncccc3F)C3CCOCC3)c2c1` (stereo not shown) [Example 324, 11-Chloro-5-(dimethyl-1,2-oxazol-4-yl)-8-[(3-fluoropyridin-2-yl)(oxan-4-yl)methyl]-3,8,12-triazatricyclo[7.4.0.0^2,^7]trideca-1(9),2(7),3,5,10,12-hexaene]: the IC50 was less than 1500 nM.

With `CNCCN(C)c1ccc2c3ncc(-c4c(C)nnn4C)cc3n([C@H](c3ccccc3F)C3CCOCC3)c2n1` [Example 228, 5-(Dimethyl-1H-1,2,3-triazol-5-yl)-8-[(S)-(2-fluorophenyl)(oxan-4-yl)methyl]-N-methyl-N-[2-(methylamino)ethyl]-3,8,10-triazatricyclo[7.4.0.0^2,^7]trideca-1(13),2(7),3,5,9,11-hexaen-11-amine], the IC50 was less than 1 nM.

Consider `Cc1nnn(C)c1-c1cnc2c3ccc(N4CC5CC4CS5(=O)=O)nc3n([C@H](c3ccccc3)C3CCOCC3)c2c1` (stereo partly drawn) [Example 214, 5-[5-(Dimethyl-1H-1,2,3-triazol-5-yl)-8-[(S)-oxan-4-yl(phenyl)methyl]-3,8,10-triazatricyclo[7.4.0.0^2,^7]trideca-1(9),2(7),3,5,10,12-hexaen-11-yl]-2λ^6-thia-5-azabicyclo[2.2.1]heptane-2,2-dione], for which the half-maximal inhibitory concentration (IC50) is less than 1 nM.

As for `Cc1nnn(C)c1-c1cnc2c3ccc(Cl)nc3n([C@@H](c3ccccc3)C3CCOCC3)c2c1` [Example 15, 11-Chloro-5-(dimethyl-1H-1,2,3-triazol-5-yl)-8-[(R)-oxan-4-yl(phenyl)methyl]-3,8,10-triazatricyclo[7.4.0.0^2,^7]trideca-1(9),2(7),3,5,10,12-hexaene], the half-inhibitory concentration (IC50) is less than 1500 nM.

With `[2H]C([2H])([2H])c1nnn(C)c1-c1cnc2c3c(OCC)nccc3n([C@H](c3ccccc3)C3CCOCC3)c2c1` [Example 129, 13-Ethoxy-5-[4-(^2H3)methyl-1-methyl-1H-1,2,3-triazol-5-yl]-8-[(S)-oxan-4-yl(phenyl)methyl]-3,8,12-triazatricyclo[7.4.0.0^2,^7]trideca-1(13),2(7),3,5,9,11-hexaene], the IC50 is less than 1 nM.

On to `[2H]C([2H])([2H])c1nnn(C)c1-c1cnc2c3c(OC)ncc(C(C)(C)O)c3n(C(c3ccccc3)C3CCC(F)(F)CC3)c2c1` (single isomer, unassigned) [Example 281, 2-{8-[(4,4-Difluorocyclohexyl)(phenyl)methyl]-13-methoxy-5-[4-(^2H3)methyl-1-methyl-1H-1,2,3-triazol-5-yl]-3,8,12-triazatricyclo[7.4.0.0^2,^7]trideca-1(9),2,4,6,10,12-hexaen-10-yl}propan-2-ol], for which the IC50 is less than 10 nM.

Turning to `Cc1cccnc1C(C1CCOCC1)n1c2cc(-c3c(C)nnn3C)ncc2c2ncc(C(C)(C)O)cc21` (single isomer, unassigned) [Example 373], the IC50 is less than 1500 nM.

In the case of `[2H]C([2H])([2H])c1nnn(C)c1-c1cc2c(cn1)c1ncc(C(C)(C)O)cc1n2C(c1ncccc1F)C1CCOCC1` (single isomer, unassigned) [Example 367], the half-maximal inhibitory concentration (IC50) is less than 10 nM.

Turning to `Cc1noc(C)c1-c1cnc2c3cnc(Cl)cc3n(C(c3ccc(Cl)cn3)C3CCOCC3)c2c1` (single isomer, unassigned) [Example 328], the 50% inhibitory concentration (IC50) is less than 10 nM.

Take `Cc1nnn(C)c1-c1cnc2c3c(NCC4CC4)ncc(Cl)c3n([C@H](c3ccccc3)C3CCOCC3)c2c1` [Example 44, 10-Chloro-N-(cyclopropylmethyl)-5-(dimethyl-1H-1,2,3-triazol-5-yl)-8-[(S)-oxan-4-yl(phenyl)methyl]-3,8,12-triazatricyclo[7.4.0.0^2,^7]trideca-1(13),2(7),3,5,9,11-hexaen-13-amine]: the IC50 was less than 10 nM.

With `Cc1nnn(C)c1-c1cnc2c3ccc(S(=O)(=O)N4CCCC4)nc3n([C@H](c3ccccc3)C3CCOCC3)c2c1` [Example 196, 5-(Dimethyl-1H-1,2,3-triazol-5-yl)-8-[(S)-oxan-4-yl(phenyl)methyl]-11-(pyrrolidine-1-sulfonyl)-3,8,10-triazatricyclo[7.4.0.0^2,^7]trideca-1(9),2(7),3,5,10,12-hexaene], the 50% inhibitory concentration (IC50) was less than 10 nM.

For `[2H]C([2H])([2H])c1nnn(C)c1-c1cnc2c3ccc(N4CC(N5CCS(=O)(=O)CC5)C4)nc3n([C@H](c3ccccc3)C3CCOCC3)c2c1` [Example 186, 4-(1-{5-[4-(^2H3)Methyl-1-methyl-1H-1,2,3-triazol-5-yl]-8-[(S)-oxan-4-yl(phenyl)methyl]-3,8,10-triazatricyclo[7.4.0.0^2,^7]trideca-1(9),2(7),3,5,10,12-hexaen-11-yl}azetidin-3-yl)-1λ^6,4-thiomorpholine-1,1-dione], the IC50 was less than 10 nM.

On to `Cc1nnn(C)c1-c1cnc2c3cnccc3n([C@H](c3ccccc3)C3CCOCC3)c2c1` [Example 35, 5-(Dimethyl-1H-1,2,3-triazol-5-yl)-8-[(S)-oxan-4-yl(phenyl)methyl]-3,8,12-triazatricyclo[7.4.0.0^2,^7]trideca-1(13),2(7),3,5,9,11-hexaene], for which the concentration for half-maximal inhibition (IC50) is less than 10 nM.

Take “2-{5-[4-(^2H3)Methyl-1-methyl-1H-1,2,3-triazol-5-yl]-8-[1-(pyridin-2-yl)butyl]-3,8,12-triazatricyclo[7.4.0.0^2,^7]trideca-1(13),2(7),3,5,9,11-hexaen-11-yl}propan-2-ol [Example 357]”: the IC50 is less than 10 nM.

As to `CCOP(=O)(CCNc1ccc2c3ncc(-c4c(C)nnn4C)cc3n([C@H](c3ccccc3)C3CCOCC3)c2n1)OCC` [Example 215, Diethyl (2-{[5-(dimethyl-1H-1,2,3-triazol-5-yl)-8-[(S)-oxan-4-yl(phenyl)methyl]-3,8,10-triazatricyclo[7.4.0.0^2,^7]trideca-1(9),2(7),3,5,10,12-hexaen-11-yl]amino}ethyl)phosphonate], the IC50 was less than 10 nM.

Regarding `[2H]C([2H])([2H])c1nnn(C)c1-c1cnc2c3ccc(N4CCN(CC(F)(F)F)CC4)nc3n([C@H](c3ccccc3)C3CCOCC3)c2c1` [Example 154, 5-[4-(^2H3)Methyl-1-methyl-1H-1,2,3-triazol-5-yl]-8-[(S)-oxan-4-yl(phenyl)methyl]-11-[4-(2,2,2-trifluoroethyl)piperazin-1-yl]-3,8,10-triazatricyclo[7.4.0.0^2,^7]trideca-1(9),2(7),3,5,10,12-hexaene], the IC50 was less than 10 nM.

Take `CSc1ccc2c3ncc(-c4c(C)nnn4C)cc3n([C@H](c3ccccc3)C3CCOCC3)c2n1` [Example 194, 5-(Dimethyl-1H-1,2,3-triazol-5-yl)-11-(methylsulfanyl)-8-[(S)-oxan-4-yl(phenyl)methyl]-3,8,10-triazatricyclo[7.4.0.0^2,^7]trideca-1(9),2(7),3,5,10,12-hexaene]: the 50% inhibitory concentration (IC50) was less than 10 nM.
